# Test results: patent publication US6458760B1, “Method for treating tissue damaged from ischemia” (Henry Ford Health System, priority 1998, dated 2002)
# Residues, ends and D or L forms follow the SMILES beside them. *: point of attachment. Cbz = O=C(OCc1ccccc1)*; CHN2 = [N-]=[N+]=C*; tBu = CC(C)(C)*
# Assays:
# Calpain = Calpain inactivation rate, fluorimetric progress curves; type: biochemical; conditions: second order inactivation rate constant corrected for substrate; substrate Suc-Leu-Tyr-AMC; pH 7.5, 37° C.
# Experimental: (§1) (“Tian, et al.”) the contents of which are incorporated by reference. More specifically, the value of kobs is given by the slope of a plot of ln [P]∞−[p]t versus t (time). The apparent second-order rate contact for inactivation, k2app was calculated as kobs/[I]. The inactivation-rates (kobs) in the presence of substrate and for different inhibitor concentrations for calpain, cathepsin B and cathepsin L are determined according to the method of Tian, et al. However, k2app is corrected for the presence of substrate (s) to give the second order rate constant k^12app, calculated as k^12app=k2app (1+[s]/Km).
# Calpain was assayed fluorimetrically in 1 ml of 50 mM Tris/acetate buffer, pH 7.5, containing 5 mM CaCl2, 2.5 mM DTT(dithiothreitol), 0.1% Triton X-100 at 37° C., using 2.5×10^−4 M Suc-Leu-Tyr-aminomethylcoumarin (AMC) (Novabiochem, Switzerland) as substrate and 50nM (final concentration) of enzyme. The appearance of the 7-amino-4 methylcoumarin product was recorded continuously with a Perkin Elmer 650-10S spectrofluorimeter, a SPEX Fluorolog 1680, or SLM 8000C fluorescence spectrometer with excitation at 370 nm and emission at 460 nm.
# Typically, 5 μL of the substrate solution (50 mM stock in DMSO) was added to 1 mL of buffer. Varying concentrations of the inhibitor solution (10 μL of a DMSO […] solution) were added, followed by 10 μL of calpain in the assay buffer. After allowing the reaction mixture to incubate for 2-5 min, during which time a steady baseline level of fluorescence was measured, calcium was added in a 10-μL volume to initiate hydrolysis of the fluorogenic substrate, and the resulting increase in fluorescence was monitored continuously. When inhibitors were tested at very low concentrations, the enzyme concentration was reduced to maintain a minimum of a 10-fold excess of inhibitor over enzyme.
# [1] = system: Wistar rats with MCA occlusion; test: Stroke model, 2 h MCA occlusion, i.v. infusion after reperfusion, infarct volume at 7 days; type: in vivo, rat; conditions: 2 h MCA occlusion; for % Hemisphere Infarct Volume (% ± SEM): day 7, control 37 ± 2.6
# Experimental: Male Wistar rat weighing between 270-290 gm are fasted the night prior to surgery. Each rat was then anesthetized with 3.5% halothane, and spontaneously respired with 0.5% halothane in a 2:1 N2O:O2 mixture using a face mask. A normal range of blood gases and pH is maintained during ischemia and reperfusion with the face mask inhalation, as verified by samples taken from a femoral artery PE-50 catheter. Body temperature is maintained constant at 37° C. with a recirculating heating pad and K module with an intrarectal type T thermocouple. The PE-50 catheters are inserted into the femoral artery and vein following induction of anesthesia to obtain the blood gas, glucose and hemoglobin concentrations and to monitor blood pressure.
# The right common carotid artery, external carotid artery and internal carotid artery are isolated using microsurgical techniques. A clamp is applied to the common carotid artery and a 4-0 nylon suture with a rounded tip is inserted into the external carotid artery through a small puncture. The clamp on the common carotid artery is removed. The suture is passed distally into the internal carotid artery until it blocks the middle cerebral artery. Two hours after the MCA occlusion, the animal is again anesthetized, and the nylon suture is removed from the internal carotid artery.
# Infusion of the inhibitor or vehicle is done by intravenous infusion via the femoral vein.
# Syringe pumps were filled under sterile conditions with either isotonic saline/1% DMSO solution as the control or with the concentration of CP-1 or CP-2 indicated in the examples, hereinbelow. The pumps delivered the solution at a rate of 15 μl/min for up to 4 hours.
# After anesthesia had been induced in the rat, a catheter was inserted into the femoral vein and tunneled subcutaneously in the posterior neck region. Body temperature was maintained at a constant temperature of 37° C. during surgical procedures. The animals underwent 2 hours of MCA occlusion, and then reperfusion when the suture was withdrawn, and immediately thereafter, the drug was infused for four hours. The animals were killed after a 7-day reperfusion, and the brains were formalin fixed and sliced 6-μm thick into seven coronal sections A-G, and mounted on coated slides. After staining with hematoxylin and eosin, the stroke volume was measured using an image analysis program. The stroke area and the contralateral hemispheric area were calculated by tracing the areas on the computer screen, and the volumes were determined by multiplying the appropriate area by the section interval thickness. The stroke volume is expressed as the percentage of lesion size to the volume of contralateral hemisphere. Statistical analysis was performed using the independent t-test.
# CP-1 dissolved in 1% DMSO and isotonic saline was given intravenously to Wistar rats (15 μl/min) at concentrations of 2 μM, 10μM, 50μM and 25μM for 4 hours immediately after reperfusion following two hours of MCA occlusion, in accordance with the procedure described hereinabove. Control animals underwent a similar protocol but they had injected therein 1% DMSO/Saline as the vehicle within four hours. All animals which survived 7 days were sacrificed and the stroke volume calculated. The results are tabulated hereinbelow:
# The protocol described hereinabove was repeated with CP-2 used in lieu of CP-1, at doses of 10, 50, 250 and 500 μM.
# Cathepsin B = Cathepsin B (Homo sapiens, UniProt P07858); test: Cathepsin B inactivation rate, fluorimetric progress curves; type: biochemical; conditions: second order inactivation rate constant corrected for substrate; pH 5.4, 30° C.
# Experimental: as §1
# Cathepsins B and L were preactivated with […] DTT in 50 mM sodium acetate buffer, pH 5.4, 1 mM EDTA for 2 h at 4° C. and assayed in the same buffer with 0.01% Brij [poly(oxyethylene) glycol dodecyl ether]. […] The inhibitors (0.1-1 μM) and substrate were added to the reaction mixture to incubate for 5 min in a cuvette thermostated at 30° C. Then, approximately 0.4 nM and 0.1 nM final concentration of cathepsin B and cathepsin L, respectively, were used to initiate the reaction. […] The progress curves were analyzed over at least 3 half lives to calculate the rate constants of inactivation in accordance with the procedure described by Crawford, C. Mason, R. W., Wilkström, P., and Shaw, E. in an article entitled “The design of peptidyldiazomethane inhibitors to distinguish between the cysteine proteinases calpain II, cathepsin L and cathepsin B.”, Biochem. J. 1988, 253, 751-758, the contents of which are incorporated by reference. The rates of inactivation of various substrates are tabulated hereinbelow.
# Cathepsin L = Cathepsin L (Homo sapiens, UniProt P07711); test: Cathepsin L inactivation rate, fluorimetric progress curves; type: biochemical; conditions: second order inactivation rate constant corrected for substrate; substrate Z-Phe-Arg-AMC; pH 5.4, 30° C.
# Cathepsin L, sequence (P07711 114-333, species assumed): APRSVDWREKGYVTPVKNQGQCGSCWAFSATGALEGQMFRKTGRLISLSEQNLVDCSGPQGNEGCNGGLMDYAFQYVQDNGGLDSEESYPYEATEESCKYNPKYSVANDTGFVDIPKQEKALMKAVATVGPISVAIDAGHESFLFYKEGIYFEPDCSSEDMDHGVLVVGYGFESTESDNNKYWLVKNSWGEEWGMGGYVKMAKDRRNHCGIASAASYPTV
# Experimental: as §1
# Cathepsins B and L were preactivated with […] DTT in 50 mM sodium acetate buffer, pH 5.4, 1 mM EDTA for 2 h at 4° C. and assayed in the same buffer with 0.01% Brij [poly(oxyethylene) glycol dodecyl ether]. 5 μM (final concentration) CBZ-Phe-Arg-AMC was used as substrate for both for cathepsins B and L. The inhibitors (0.1-1 μM) and substrate were added to the reaction mixture to incubate for 5 min in a cuvette thermostated at 30° C. Then, approximately 0.4 nM and 0.1 nM final concentration of cathepsin B and cathepsin L, respectively, were used to initiate the reaction. […] The progress curves were analyzed over at least 3 half lives to calculate the rate constants of inactivation in accordance with the procedure described by Crawford, C. Mason, R. W., Wilkström, P., and Shaw, E. in an article entitled “The design of peptidyldiazomethane inhibitors to distinguish between the cysteine proteinases calpain II, cathepsin L and cathepsin B.”, Biochem. J. 1988, 253, 751-758, the contents of which are incorporated by reference. The rates of inactivation of various substrates are tabulated hereinbelow.
# [2] = system: rats with middle cerebral artery occlusion; test: Stefin A in rat stroke model, infarcted brain tissue volume; type: in vivo; conditions: compared to animals without inhibitor
# Excerpt: The inventors have used a stroke model in rats, explained in more detail hereinbelow, to verify this. In this model, a nylon monofilament is advanced through the vasculature of anesthetized rats until it blocks the middle cerebral artery. The monofilament is left in place for two hours. Withdrawal of the monofilament initiates reperfusion of the ischemic tissue. The extent of damage is visualized seven days after the ischemic event by removing the brain of the animal and examining it in section.
# The initial cathepsin inhibitor used by the inventors was a large naturally occurring molecule, stefin A (MW 15,000). In the stroke model, this molecule was administered intraventricularly in some studies prior to the occlusion and intravenously upon reperfusion in others.
Cathepsin B k′2app (Cathepsin B),Cathepsin L k′2app (Cathepsin L),Molecule,Calpain k′2app (Calpain),% Hemisphere Infarct Volume (% ± SEM) ([1]; 10 μM i.v. 15 μl/min for 4 h after reperfusion),% Hemisphere Infarct Volume (% ± SEM) ([1]; 50 μM i.v. 15 μl/min for 4 h after reperfusion),% Hemisphere Infarct Volume (% ± SEM) ([1]; 250 μM i.v. 15 μl/min for 4 h after reperfusion),% Hemisphere Infarct Volume (% ± SEM) ([1]; 500 μM i.v. 15 μl/min for 4 h after reperfusion),"effectiveness in reducing stroke damage ([1]; doses 10, 50, 250 and 500 μM)",reduction in the volume of the infarcted brain tissue ([2]; administered intravenously upon reperfusion),reduction in the volume of the infarcted brain tissue ([2]; administered intraventricularly prior to the occlusion)
10 M^−1S^−1,"200,000 M^−1S^−1","CC(C)(C)Oc1ccc(CC(NC(=O)C(Cc2ccccc2)NC(=O)OCc2ccccc2)C(=O)C=[N+]=[N-])cc1 (stereo not drawn) [CP-2, benzyloxycarbonyl-Phe-Tyr(OtBu)-CHN2] (Cbz-Phe-Tyr(tBu)-CHN2; configuration not given here)",<10 M^−1S^−1,"28 ± 4.6, p > 0.05%","35 ± 4.8, p > 0.05%","21 ± 4.7, p = 0.01%","22 ± 3.5, p = 0.004%","High doses of CP-2 were effective, but not the lower doses",,
,,"stefin A: large naturally occurring molecule (MW 15,000), cathepsin inhibitor, recombinant preparation, used as control (protein, UniProt P01040 1-98, looked up) Cystatin-A: MIPGGLSEAKPATPEIQEIVDKVKPQLEEKTNETYGKLEAVQYKTQVVAGTNYYIKVRAGDNKYMHLKVFKSLPGQNEDLVLTGYQVDKNKDDELTGF",,,,,,,~40%,~40%
